In brackets after ≈: the same amount, converted by molar mass. Read-outs that look alike come from different tables or passages of the source.
Key:
human EP2 receptors = biological target: T1, human EP2 receptors (Homo sapiens, UniProt P43116); assay: cell-based cAMP TR-FRET assay, rightward shift of PGE2 concentration response curve (Schild KB), EP2; conditions: for mechanism of antagonism of EP2: Schild regression analysis
T1 construct: expressed in transfected cells
Experimental: KB value indicates the antagonist concentration required for a twofold rightward shift in the PGE2 dose-response curve. Thus, a lower KB value indicates a higher inhibitory potency.
(§1) The synthesis was carried out starting from commercially available 2-methyl indole or 2-trifluoromethyl indoles (11a-c), which on treatment with bromoacetonitrile provided intermediates (12a-c), which then were subjected to lithium aluminum hydride to reduce cyanide to amines. […] Synthesized derivatives were tested by using a cAMP-derived TR-FRET assay, at single concentration (1 μM) to observe a rightward shift of PGE2 (an EP2 agonist) concentration response curve in a C6G cell line that overexpresses human EP2 receptors.
A lower KB value indicates a higher inhibitory potency.
(§2) Intracellular cAMP was measured with a cell-based homogeneous time-resolved fluorescence resonance energy transfer (TR-FRET) method (Cisbio Bioassays). […] Endogenous cAMP produced by cells competes with labeled cAMP for binding to the cAMP antibody and thus reduces the FRET signal. Cells stably expressing human DP1, EP2, EP4, or IP receptors were seeded into 384-well plates in 30 μl complete medium (4,000 cells/well) and grown overnight. The medium was carefully withdrawn and 10 μl Hanks' Buffered Salt Solution (HBSS) (Hyclone) containing 20 μM rolipram was added into the wells to block phosphodiesterases. The cells were incubated at room temperature for 0.5-1 h and then treated with vehicle or test compound for 10 min before addition of increasing concentrations of appropriate agonist: BW245C for DP1, PGE2 for EP2 and EP4, or iloprost for IP. The cells were incubated at room temperature for 40 min, then lysed in 10 μl lysis buffer containing the FRET acceptor cAMP-d2 and 1 min later another 10 μl lysis buffer with anti-cAMP-Cryptate was added. After 60-90 min incubation at room temperature, the FRET signal was measured by an Envision 2103 Multilabel Plate Reader (PerkinElmer Life Sciences) with a laser excitation at 337 nm and dual emissions at 665 nm and 590 nm for d2 and Cryptate (50 s delay), respectively. The FRET signal was expressed as: F665/F590×10^4.

[1] = aqueous solubility by nephelometry; conditions: for aqueous solubility (in words): PBS buffer (pH 7.4) with 1% DMSO, nephelometry
human EP4 receptors = biological target: T2, human EP4 receptors (Homo sapiens, UniProt P35408); assay: cell-based cAMP TR-FRET assay, EP4 (agonist PGE2); conditions: for Selective Index EP4/EP2 / potency estimated from few doses: Table 2; for potency estimated from few doses: extrapolated Schild KB from single concentration of 10 μM
T2 construct: expressed in transfected cells
T2 sequence (P35408 whole entry): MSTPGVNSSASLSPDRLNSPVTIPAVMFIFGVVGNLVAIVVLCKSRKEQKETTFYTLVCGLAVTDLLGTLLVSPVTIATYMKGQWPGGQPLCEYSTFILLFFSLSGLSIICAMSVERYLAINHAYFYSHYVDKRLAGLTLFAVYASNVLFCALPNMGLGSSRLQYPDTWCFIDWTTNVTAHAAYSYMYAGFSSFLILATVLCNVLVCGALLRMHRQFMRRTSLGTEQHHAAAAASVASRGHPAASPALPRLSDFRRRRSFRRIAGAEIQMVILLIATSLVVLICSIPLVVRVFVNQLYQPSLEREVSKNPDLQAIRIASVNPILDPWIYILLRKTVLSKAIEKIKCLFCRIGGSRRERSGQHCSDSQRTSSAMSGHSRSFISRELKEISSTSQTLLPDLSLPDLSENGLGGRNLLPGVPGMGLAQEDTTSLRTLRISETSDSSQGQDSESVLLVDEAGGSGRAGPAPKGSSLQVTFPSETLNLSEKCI
Experimental: (§3) These derivatives were selected for testing against EP4 and IP receptors. Cell lines were created that overexpress EP4 receptors, or IP receptors on C6-glioma cells. A cAMP-derived TR-FRET assay was developed using agonists PGE2 (for EP4) and iloprost (for IP), similar to EP2 assay.
as §2

human DP1 receptors = biological target: T3, human DP1 receptors (Homo sapiens, UniProt Q13258); assay: cell-based cAMP TR-FRET assay, DP1 (agonist BW245C); conditions: Table 2; for Kb: read-out: KB DP1
T3 construct: expressed in transfected cells
T3 sequence (Q13258 1-359): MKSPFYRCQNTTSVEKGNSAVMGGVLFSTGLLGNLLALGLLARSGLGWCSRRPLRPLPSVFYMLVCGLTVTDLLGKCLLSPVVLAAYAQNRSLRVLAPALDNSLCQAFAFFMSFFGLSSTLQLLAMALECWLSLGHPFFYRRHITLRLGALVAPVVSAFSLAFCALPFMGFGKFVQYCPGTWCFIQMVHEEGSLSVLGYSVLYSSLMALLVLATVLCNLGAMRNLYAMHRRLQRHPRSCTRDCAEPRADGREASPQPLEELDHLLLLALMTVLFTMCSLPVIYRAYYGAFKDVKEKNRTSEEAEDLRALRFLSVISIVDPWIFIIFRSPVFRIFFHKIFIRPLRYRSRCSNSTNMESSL
Experimental: as §1
as §2, with “After 60-90 min incubation at room temperature, the FRET signal was measured by an Envision 2103 Multilabel Plate Reader (PerkinElmer Life Sciences) with a laser excitation at 337 nm and dual emissions at 665 nm and 590 nm for d2 and Cryptate (50 s delay), respectively.” left out

human IP receptors = biological target: T4, human IP receptors (Homo sapiens, UniProt P43119); assay: cell-based cAMP TR-FRET assay, IP (agonist iloprost); conditions: Table 2; for potency estimated from few doses: extrapolated Schild KB from single concentration of 10 μM
T4 construct: expressed in transfected cells
T4 sequence (P43119 whole entry): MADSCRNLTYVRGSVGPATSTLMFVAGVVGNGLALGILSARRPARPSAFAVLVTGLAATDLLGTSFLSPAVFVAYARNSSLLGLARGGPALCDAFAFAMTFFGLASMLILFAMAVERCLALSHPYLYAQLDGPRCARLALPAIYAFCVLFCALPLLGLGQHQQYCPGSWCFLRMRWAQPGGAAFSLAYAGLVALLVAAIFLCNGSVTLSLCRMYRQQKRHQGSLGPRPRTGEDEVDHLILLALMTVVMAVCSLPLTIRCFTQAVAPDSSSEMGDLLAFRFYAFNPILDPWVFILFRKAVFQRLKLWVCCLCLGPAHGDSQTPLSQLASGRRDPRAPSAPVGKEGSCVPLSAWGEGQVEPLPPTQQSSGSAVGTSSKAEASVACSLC
Experimental: as §3, §2

in vitro = conditions: rat
Experimental: (§4) CC50 are average one measurement run in triplicate.
(§5) Several of compounds were examined against EP4 and IP receptors at single concentration of 10 μM.

[2] = liver microsomal stability, human
[3] = liver microsomal stability, mouse
[4] = pH 7.4
[5] = mouse, in vivo
physchem = conditions: pH 7.4, aqueous buffer, kinetic from dmso stock
[6] = Table 1, Schild KB from single antagonist concentration 1 μM, average of 2-3 measurements in duplicate, read-out: EP2 KB
[7] = single concentration values, read-out: EP2 potency (Schild KB)
[8] = Table 3, PBS buffer (pH 7.4) with 1% DMSO by nephelometry

T1 sequence (P43116 whole entry): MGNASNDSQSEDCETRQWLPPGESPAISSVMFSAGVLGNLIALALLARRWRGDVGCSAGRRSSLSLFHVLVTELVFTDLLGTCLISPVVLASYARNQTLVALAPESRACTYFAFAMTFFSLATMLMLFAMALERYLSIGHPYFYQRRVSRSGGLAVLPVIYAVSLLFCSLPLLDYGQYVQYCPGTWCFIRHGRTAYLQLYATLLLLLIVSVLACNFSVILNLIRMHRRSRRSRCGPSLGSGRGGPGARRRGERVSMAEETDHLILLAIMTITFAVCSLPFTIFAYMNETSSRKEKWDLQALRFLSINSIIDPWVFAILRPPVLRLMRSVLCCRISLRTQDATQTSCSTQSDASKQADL
Experimental for C6-glioma cells: as §4, §5

Structure (SMILES): Cc1cc2ccccc2n1CCNC(=O)c1ccc(N2CCC(C(=O)O)CC2)cc1 [Compound 7n]
- Kb (human EP2 receptors; [6]): 89.7 nM
- aqueous solubility (in words) [1]: high aqueous solubility

Structure (SMILES): Cc1cc2ccccc2n1CCNC(=O)c1ccc(N2CCOCC2)c(F)c1 [Compound 7t]
- selectivity over EP4 (human EP4 receptors; EP2 over EP4): ~600 fold
- Selective Index EP4/EP2 (human EP4 receptors): 565
- potency estimated from few doses (human EP4 receptors): 14.5 µM
- Selective Index (DP1/EP2) (human DP1 receptors): 85
- Selective Index (IP/EP2) (human IP receptors): 217
- potency estimated from few doses (human IP receptors): 5.6 µM
- Therapeutic Index (CC50/EP2 KB) (C6-glioma cells; rat): >19,450
- CC50 (in vitro): > 500 µM

Structure (SMILES): Cc1cc2ccccc2n1CCNC(=O)c1ccc(-c2nnn[nH]2)cc1 [Compound 7z]
- potency estimated from few doses (human EP4 receptors): > 10000 µM
- potency estimated from few doses (human IP receptors): > 10000 µM
- CC50 (in vitro): > 300 µM
- aqueous solubility (in words) [1]: high aqueous solubility

Structure (SMILES): Cc1cc2ccccc2n1CCNC(=O)c1ccc2c(c1)n(C)c(=O)n2C [Compound 8a, 1,3-Dimethyl-N-(2-(2-methyl-1H-indol-1-yl)ethyl)-2-oxo-2,3-dihydro-1H-benzo[d]imidazole-5-carboxamide]
- Kb (human EP2 receptors; [6]): 20.9 nM
- Selective Index EP4/EP2 (human EP4 receptors): 1730
- potency estimated from few doses (human EP4 receptors): 36.1 µM
- Selective Index (DP1/EP2) (human DP1 receptors): 300
- Kb (human DP1 receptors): 6.29 µM
- Selective Index (IP/EP2) (human IP receptors): 1200
- potency estimated from few doses (human IP receptors): 25.2 µM
- CC50 (C6-glioma cells; rat): 154 µM
- Therapeutic Index (CC50/EP2 KB) (C6-glioma cells; rat): 7,370
- concentration showing an effect on cell viability (C6-glioma cells; rat): > 100 µM

Structure (SMILES): CCN(CC)c1ccc(C(=O)NCCc2c(C)[nH]c3ccccc23)cc1 [Compound 9a, 4-(Diethylamino)-N-(2-(2-methyl-1H-indol-3-yl)ethyl)benzamide]
- mechanism of antagonism of EP2 (human EP2 receptors): competitive
- Kb (human EP2 receptors; [6]): 6.9 nM
- Kb (human EP2 receptors; [7]): ~10 nM
- Selective Index EP4/EP2 (human EP4 receptors): 6,945
- potency estimated from few doses (human EP4 receptors): 48 µM
- Selective Index (DP1/EP2) (human DP1 receptors): 1374
- Kb (human DP1 receptors): 9.48 µM
- potency estimated from few doses (human IP receptors): > 10000 µM
- Therapeutic Index (CC50/EP2 KB) (C6-glioma cells; rat): >72,460
- CC50 (in vitro): > 500 µM

Structure (SMILES): COc1cc(/C=C/C(=O)NCCn2c(C)cc3ccccc32)cc(OC)c1OC [Compound 15a]
- CC50 (C6-glioma cells; read-out: Cytotoxicity (CC50), Table 4): 172 µM
- % of Parent Compound Remaining at 60 min vs. T = 0 min, Human Liver Microsomes ([2]; 1 μM): 0.1%
- % of Parent Compound Remaining at 60 min vs. T = 0 min, Human Liver Microsomes ([2]; 10 μM): 10.6%
- % of Parent Compound Remaining at 60 min vs. T = 0 min, Mouse Liver Microsomes ([3]; 1 μM): 0.2%
- % of Parent Compound Remaining at 60 min vs. T = 0 min, Mouse Liver Microsomes ([3]; 10 μM): 4.8%
- % remaining at 60 minutes in mouse liver microsomes ([3]; at 1 μM concentration): 0.2%
- Solubility [1, 8]: 45 µM (≈ 17.8 µg/mL)

Structure (SMILES): COc1cc(/C=C/C(=O)NCCn2c(CN3CCOCC3)cc3ccccc32)cc(OC)c1OC [Compound 15l]
- Solubility [1, 8]: 91 µM (≈ 43.6 µg/mL)

Structure (SMILES): COc1cc(/C=C/C(=O)NCCn2c(CNC3CCN(C)CC3)cc3ccccc32)cc(OC)c1OC [Compound 15m]
- Solubility [1, 8]: 180 µM (≈ 91.2 µg/mL)

Structure (SMILES): Cc1cc2ccccc2n1CCNC(=O)/C=C/c1ccc(OCCO)c(OCCO)c1 [Compound 16a, (E)-3-(3,4-bis(2-hydroxyethoxy)phenyl)-N-(2-(2-methyl-1H-indol-1-yl)ethyl)acrylamide]
- mechanism of antagonism of EP2 (human EP2 receptors): competitive
- Solubility [4]: 153 µM (≈ 64.9 µg/mL)
- C-max ([5]; ip, 5 mg/kg): 1510 ± 142 ng/mL
- T1/2 (plasma) ([5]; ip, 5 mg/kg): 1.49 h
- C-max ([5]; po, 10 mg/kg): 128 ± 23 ng/mL
- T1/2 (plasma) ([5]; po, 10 mg/kg): 1.44 h

Structure (SMILES): O=C(/C=C/c1ccc(OCCO)c(OCCO)c1)NCCn1c(C(F)(F)F)cc2ccccc21 [Compound 16b]
- Solubility [4]: 67 µM (≈ 32.1 µg/mL)
- Solubility (physchem): 67 µM (≈ 32.1 µg/mL)

Structure (SMILES): Cc1[nH]c2ccccc2c1CCNC(=O)/C=C/c1ccc(OCCO)c(OCCO)c1 [Compound 16c, (E)-3-(3,4-bis(2-hydroxyethoxy)phenyl)-N-(2-(2-methyl-1H-indol-3-yl)ethyl)acrylamide]
- % of Parent Compound Remaining at 60 min vs. T = 0 min, Human Liver Microsomes ([2]; 1 μM): 58.5%
- % of Parent Compound Remaining at 60 min vs. T = 0 min, Human Liver Microsomes ([2]; 10 μM): 70.4%
- % of Parent Compound Remaining at 60 min vs. T = 0 min, Mouse Liver Microsomes ([3]; 1 μM): 7.1%
- % of Parent Compound Remaining at 60 min vs. T = 0 min, Mouse Liver Microsomes ([3]; 10 μM): 19.3%
- aqueous solubility (in words) [1]: very soluble
- Solubility [1, 8]: 235 µM (≈ 99.8 µg/mL)

Structure (SMILES): Cc1[nH]c2ccccc2c1CCNC(=O)/C=C/c1ccc(OCCO)cc1 [Compound 16d]
- Kb (human EP2 receptors; Table 3, Schild KB from single concentration 1 μM, read-out: EP2 KB): 13.6 nM
- Kb (human EP2 receptors; Table 4, read-out: KB EP2): 13.6 nM
- Kb (human EP2 receptors; [7]): 11.4 to 13.6 nM
- CC50 (in vitro): 81.7 µM
- Solubility ([1]; PBS buffer, pH 7.4, aqueous buffer, kinetic from dmso stock): 68 µM (≈ 24.8 µg/mL)

Structure (SMILES): Cc1cc2ccccc2n1CCNC(=O)/C=C/c1ccc(OCCCO)cc1 [Compound 16e]
- Solubility [1, 8]: 66 µM (≈ 25 µg/mL)
